From US20140377216A1, “ANTICANCER FUSION PROTEIN” (ADAMED SP. Z.O.O., priority 2011, published 2014) come the findings set out here.

For one assay, the system named is human liver cancer HepG2. In words: Liver cancer model, Experiment A: HepG2 xenograft. The note with it: 20 mg/kg i.p. In kind it is in vivo, Crl:SHO-PrkdcscidHrhr mice. As to the method:
(§1) Tumor size was measured using electronic calliper, tumor volume was calculated using the formula: (a^2×b)/2, where a=shorter diagonal of the tumor (mm) and b=longer diagonal of the tumor (mm). Inhibition of tumor growth was calculated using the formula:
(§2) TGI[%](Tumor growth inhibition)=(WT/WC)×100−100%
(§3) wherein WT is the average tumor volume in the treatment group, and WC is the average tumor volume in the control group.
On day 0 Crl:SHO-Prkdc^scidHr^hr mice were grafted subcutaneously (s.c.) in the right flank region with 7×10^6 of HepG2 cells suspended in 0.1 ml of the 3:1 mixture HBSS buffer:Matrigel using syringe with a 0.5×25 mm needle (Bogmark). When tumors reached the size of 64-529 mm^3 (day 25), mice were randomized to obtain the average size of tumors in the group of −230 mm^3 and assigned to treatment groups. The treatment groups were administered with the preparations of fusion protein of the invention of Ex. 16^b (80 mg/kg) and rhTRAIL114-281 (50 mg/kg) as a comparison and reference compound 5-FU (5-Fluorouracil, Sigma-Aldrich) (20 mg/kg). The preparations were administered intravenously (i.v.) six times every second day, 5-FU was applied intraperitoneally (i.p.). The control group received formulation buffer.
When the therapeutic group reached the average tumor size of ˜1000 mm^3, mice were sacrificed by cervical dislocation.

Assay [1] relates to human liver cancer PLC/PRF/5. Description: Liver cancer model, Experiment B: PLC/PRF/5 xenograft. It counts as in vivo, Crl:SHO-PrkdcscidHrhr mice. The conditions noted are these: 30 mg/kg i.p., schedule (q1dx5)×2, 43th day. As to the method: as §1, §2, §3
On day 0 Crl:SHO-Prkdc^scidHr^hr mice were grafted subcutaneously (s.c.) in the right flank region with 7×10^6 of PLC/PRF/5 cells suspended in 0.1 ml of the 3:1 mixture HBSS buffer:Matrigel using syringe with a 0.5×25 mm needle (Bogmark). When tumors reached the size of 72-536 mm^3 (day 29), mice were randomized to obtain the average size of tumors in the group of ˜205 mm^3 and assigned to treatment groups. The treatment groups were administered with the preparations of fusion protein of the invention of Ex. 16^b (50 mg/kg) and rhTRAIL114-281 (50 mg/kg) as a comparison and reference compound 5-FU (5-Fluorouracil, Sigma-Aldrich) (30 mg/kg). The preparations were administered intravenously (i.v.) six times every second day, except 5-FU, which was applied intraperitoneally (i.p.) in the schedule (q1dx5)×2. The control group received formulation buffer.
When an experimental group reached the average tumor size of ˜1000 mm^3, mice were sacrificed by cervical dislocation.

Assay [2] relates to pancreatic carcinoma MIA PaCa-2. Description: Pancreas cancer model, Experiment B: MIA PaCa-2 xenograft. It counts as in vivo, Crl:SHO-PrkdcscidHrhr mice. The conditions noted are these: 50 mg/kg i.p. six times every second day, 61th day. As to the method:
as §1, §2, §3
On day 0 Crl:SHO-Prkdc^scidHr^hr mice were grafted subcutaneously (s.c.) in the right flank region with 5×10^6 of MIA PaCa-2 cells suspended in 0.1 ml of 3:1 mixture HBSS buffer:Matrigel using syringe with a 0.5×25 mm needle (Bogmark). When tumors reached the size of 60-398 mm^3 (day 20), mice were randomized to obtain the average size of tumors in the group of ˜170 mm^3 and assigned to treatment groups. The treatment groups were administered with the preparations of fusion protein of the invention of Ex. 16^b (50 mg/kg) and rhTRAIL114-281 (50 mg/kg) as a comparison and reference compound gemcytabine (Gemzar, Eli Lilly) (50 mg/kg). The preparations were administered intravenously (i.v.) six times every second day, gemcytabine was applied intraperitoneally (i.p.) in the same schedule. The control group received formulation buffer.
When a therapeutic group reached the average tumor size of ˜1000 mm^3, mice were sacrificed by the cervical dislocation.

In the next assay the test system is 293. In words: MTT cytotoxicity test on 293. In kind it is cell-based, human. The conditions noted are these: continuous incubation over 72 h. For orientation: Tetrazolium assays rely on reduction of a dye to a coloured formazan, in cell work by metabolically active cells.
The test system of a further assay is NCI-H460. Description: MTT cytotoxicity test on NCI-H460. The note with it: continuous incubation over 72 h. It counts as cell-based, human.
In the next assay the test system is MCF10A. In words: MTT cytotoxicity test on MCF10A. It counts as cell-based. The conditions noted are these: continuous incubation over 72 h.
The next assay concerns MDA-MB-231. In words: MTT cytotoxicity test on MDA-MB-231. In kind it is cell-based, human. The note with it: continuous incubation over 72 h.
Another assay has as its system MDA-MB-435S. In words: MTT cytotoxicity test on MDA-MB-435S. It counts as cell-based, human. The conditions noted are these: continuous incubation over 72 h.
The test system of the next assay is HT 144. In words: MTT cytotoxicity test on HT 144. It counts as cell-based, human. The conditions noted are these: continuous incubation over 72 h.
The next assay relates to MCF-7. In words: MTT cytotoxicity test on MCF-7. It counts as cell-based, human. The conditions noted are these: continuous incubation over 72 h.
The test system of the next assay is Panc03.27. In words: MTT cytotoxicity test on Panc03.27. It counts as cell-based, human. The note with it: continuous incubation over 72 h.
For a further assay, the system named is A498. Description: MTT cytotoxicity test on A498. It counts as cell-based, human. The conditions noted are these: continuous incubation over 72 h.
The test system of another assay is COLO 205. In words: MTT cytotoxicity test on COLO 205. It counts as cell-based, human. The note with it: continuous incubation over 72 h.
In the next assay the test system is A549. In words: MTT cytotoxicity test on A549. It counts as cell-based, human. The conditions noted are these: continuous incubation over 72 h.
A further assay has as its system PLC/PRF/5. Description: MTT cytotoxicity test on PLC/PRF/5. It counts as cell-based, human. The note with it: continuous incubation over 72 h.
For another assay, the system named is PANC-1. Description: MTT cytotoxicity test on PANC-1. The note with it: continuous incubation over 72 h. It counts as cell-based, human.
Another assay concerns MES-SA. In words: MTT cytotoxicity test on MES-SA. The conditions noted are these: continuous incubation over 72 h. It counts as cell-based, human.
Another assay has as its system BxPC3. In words: MTT cytotoxicity test on BxPC3. The note with it: continuous incubation over 72 h. It counts as cell-based, human.
For a further assay, the system named is SK-MES-1. Description: MTT cytotoxicity test on SK-MES-1. In kind it is cell-based, human. The conditions noted are these: continuous incubation over 72 h.
A further assay concerns HepG2. Description: MTT cytotoxicity test on HepG2. In kind it is cell-based, human. The conditions noted are these: continuous incubation over 72 h.
The subject of a further assay is LNCaP. In words: MTT cytotoxicity test on LNCaP. It counts as cell-based, human. The note with it: continuous incubation over 72 h.
The next assay relates to HCT116. Description: MTT cytotoxicity test on HCT116. In kind it is cell-based, human. The conditions noted are these: continuous incubation over 72 h.
For the next assay, the system named is MES-SA/Mx2. Description: MTT cytotoxicity test on MES-SA/Mx2. The note with it: continuous incubation over 72 h. In kind it is cell-based, human.
The next assay deals with SW 620. Description: MTT cytotoxicity test on SW 620. The conditions noted are these: continuous incubation over 72 h. It counts as cell-based, human.
The test system of the next assay is JURKAT A3. Description: Cytotoxicity test on JURKAT A3 (nonadherent cells). The conditions noted are these: continuous incubation over 72 h, test MTT. In kind it is cell-based, human. The text has this: (§4) MTT assay is a colorimetric assay used to measure proliferation, viability and cytotoxicity of cells. It consists in decomposition of a yellow tetrazolium salt MTT (4,5-dimethyl-2-thiazolyl)-2,5-diphenyltetrazolium bromide) to the water-insoluble purple dye formazan by mitochondrial enzyme succinate-tetrazolium reductase 1. MTT reduction occurs only in living cells. Data analysis consists in determining IC50 concentration of the protein (in ng/ml), at which the 50% reduction in the number of cells occurs in the population treated compared to control cells. Results were analyzed using GraphPad Prism 5.0 software. The test was performed according to the literature descriptions (Celis, J E, (1998). Cell Biology, a Laboratory Handbook, second edition, Academic Press, San Diego; Yang, Y., Koh, L W, Tsai, J H., (2004); Involvement of viral and chemical factors with oral cancer in Taiwan, Jpn J Clin Oncol, 34 (4), 176-183).
Cell culture medium was diluted to a defined density (10^4-10^5 cells per 100 μl). […] After stirring, the absorbance was measured at 570 nm (reference filter 690 nm).
EZ4U (Biomedica) test was used for testing cytotoxic activity of the proteins in nonadherent cell lines. […] On this basis IC50 values were determined (as an average of two independent experiments) using the GraphPad Prism 5 software. […]

In another assay the test system is SK-HEP-1. In words: MTT cytotoxicity test on SK-HEP-1. In kind it is cell-based, human. The conditions noted are these: continuous incubation over 72 h.
Another assay concerns UM-UC-3. In words: MTT cytotoxicity test on UM-UC-3. It counts as cell-based, human. The conditions noted are these: continuous incubation over 72 h.
A further assay relates to OV-CAR-3. In words: MTT cytotoxicity test on OV-CAR-3. It counts as cell-based, human. The conditions noted are these: continuous incubation over 72 h.
In a further assay the test system is HT-1080. In words: MTT cytotoxicity test on HT-1080. In kind it is cell-based, human. The note with it: continuous incubation over 72 h.
The next assay concerns Caki-1. Description: MTT cytotoxicity test on Caki-1. In kind it is cell-based, human. The conditions noted are these: continuous incubation over 72 h.
A further assay deals with MES-SA/Dx5. Description: MTT cytotoxicity test on MES-SA/Dx5. In kind it is cell-based, human. The conditions noted are these: continuous incubation over 72 h.
The subject of another assay is HUV-EC-C. Description: MTT cytotoxicity test on HUV-EC-C (healthy control cells). It counts as cell-based, human. The conditions noted are these: continuous incubation over 72 h.
Description: as §4
Cell culture medium was diluted to a defined density (10^4-10^5 cells per 100 μl). Then 100 μl of appropriately diluted cell suspension was applied to a 96-well plate in triplicates. […] After stirring, the absorbance was measured at 570 nm (reference filter 690 nm). […]

In a further assay the test system is SK-OV-3. Description: MTT cytotoxicity test on SK-OV-3. In kind it is cell-based, human. The conditions noted are these: continuous incubation over 72 h.

Values joined by “and” are separate entries in the source; they are usually repeats but may differ in a detail not shown here. Equal entries are not always repeated.

`O=c1[nH]cc(F)c(=O)[nH]1` [5-FU, 5-Fluorouracil]: in the assay with human liver cancer HepG2, the “efficacy against HepG2 tumors” value is reported as “didn't show any efficacy”. In addition, in assay [1], the “TGI (tumor growth inhibition) relative to the control” value turned out to be 32.2%.
With `Nc1ccn([C@@H]2O[C@H](CO)[C@@H](O)C2(F)F)c(=O)n1` [gemcytabine], the “TGI (tumor growth inhibition) relative to the control” value in [2] worked out at 42.6%.
For orientation: IC50 means the point on the concentration scale where inhibition reaches its midpoint. A lower IC50 goes with greater potency. For “rhTRAIL95-281: TRAIL comparator protein as labelled in cytotoxicity Tables 4-4d (hTRAIL fragment 95-281)”, the IC50 was more than 10 µg/mL in the assay on 293; 5.889 µg/mL in the assay with NCI-H460; 0.438 µg/mL with NCI-H460 (listed as TRAIL 95-281); more than 10 µg/mL with MCF10A; more than 2 µg/mL with MCF10A (listed as TRAIL 95-281); more than 2 µg/mL in the assay with MDA-MB-231. The IC50 with MDA-MB-435S was more than 2 µg/mL; in the assay on HT 144 (listed as TRAIL 95-281), 1.134 µg/mL; with HT 144 (listed as rhTRAIL 95-281), 1.73 µg/mL; in the assay with MCF-7, more than 2 µg/mL; in the assay on Panc03.27, 0.315 µg/mL; with A498, 1.611 µg/mL. Besides, the 50% inhibitory concentration (IC50) with COLO 205 was 0.05902 µg/mL; in the assay on A549 it was more than 10 µg/mL; with A549 (listed as TRAIL 95-281), more than 2 µg/mL; in the assay with PLC/PRF/5 it was more than 9 µg/mL; with PLC/PRF/5 (listed as TRAIL 95-281), more than 2 µg/mL; with PANC-1, more than 10 µg/mL. In addition, the IC50 was more than 2 µg/mL with PANC-1 (listed as TRAIL 95-281); more than 10 µg/mL with MES-SA; more than 2 µg/mL with MES-SA (listed as TRAIL 95-281); 0.06471 µg/mL and 0.0606 µg/mL in the assay with BxPC3; 0.03935 µg/mL with SK-MES-1; 0.1007 µg/mL in the assay on SK-MES-1 (listed as TRAIL 95-281). Besides, the IC50 with HepG2 (listed as TRAIL 95-281) is more than 2 µg/mL; in the assay on HepG2 (listed as rhTRAIL 95-281), more than 10 µg/mL; with LNCaP, 2.052 µg/mL; in the assay on HCT116, 7.557 µg/mL; in the assay on HCT116 (listed as TRAIL 95-281) it was more than 2 µg/mL; in the assay on MES-SA/Mx2 it was 0.03895 µg/mL. Moreover, the half-inhibitory concentration (IC50) in the assay on SW 620 is more than 2 µg/mL; with JURKAT A3, more than 10 µg/mL; in the assay with SK-HEP-1, more than 2 µg/mL; with UM-UC-3, 2.242 µg/mL; in the assay with OV-CAR-3 (listed as TRAIL 95-281), 0.963 µg/mL; with OV-CAR-3 (listed as rhTRAIL 95-281), 0.963 µg/mL. Moreover, the half-inhibitory concentration (IC50) in the assay on HT-1080 is more than 2 µg/mL; in the assay on Caki-1 it was 0.01342 µg/mL; with MES-SA/Dx5, 0.02915 µg/mL; in the assay on MES-SA/Dx5 (listed as TRAIL 95-281), 0.02759 µg/mL; in the assay on HUV-EC-C, more than 2 µg/mL; in the assay with SK-OV-3 it was more than 2 µg/mL.
